According to patent publication US20020119438A1, “METHOD FOR D[…] CELL COUNT” (priority 1995, published 2002):
In brackets after ≈: the same amount, converted by molar mass.

Tests used:
MOLT-4 cells [1] = assay: Cytotoxicity assessment by method of the present invention (PO-PRO-1 Iodide fluorescence before/after Triton X-100); type: cell-based, human; conditions: two days incubation, from viable cell numbers
MOLT-4 cells [2] = assay: Cytotoxicity assessment by MTT assay system; type: cell-based, human; conditions: two days incubation

## CO[C@@]12[C@H](COC(N)=O)C3=C(C(=O)C(C)=C(N)C3=O)N1C[C@@H]1N[C@@H]12 [Mitomycin C]
MOLT-4 cells [1]
  IC50: 2.2 µg/mL (≈ 6.58 µM)
MOLT-4 cells [2]
  IC50: 5.5 µg/mL (≈ 16.5 µM)
